US6258845A (priority 1999, dated 2001)
Entries after “also recorded” stand apart in the source; their conditions may differ. Read-outs that look alike come from different tables or passages of the source.

Assays:
[1] = tested on: Caco-2 parental cells, Ki-ras clone #60 and Ki-ras clone #66; assay: Viable cell number (trypan blue dye exclusion), growth of Caco-2 parental and Ki-ras transfected cells; format: cell-based, human; conditions: 5 mM DFMO continuously, short-term growth
Method: Effect of sulindac sulfide and sulfone on the growth of Ki-ras transfected cells. […] Viable cell number was determined by trypan blue dye exclusion.
Caco-2 cells were maintained in Modified Eagle Media (GIBCO, Grand Island, N.Y.) supplemented with 10% fetal bovine serum and a 1% penicillin (10,000 units/ml)-streptomycin (10,000 mg/ml) solution (GIBCO, Grand Island, N.Y.). Transfected Caco-2 cells resistant to neomycin were maintained in 400 μg/ml G418. Cells were maintained at 37° in the presence of 5% CO2 in air.
All cells were passed into new medium every two to three days, just prior to confluence. Drug additions were performed at the time of cell seeding and in MEM for each cell line unless otherwise noted. […] The two metabolites of sulindac, sulindac sulfone and sulfide, were obtained from Cell Pathways, Inc. (Horsham Pa.).
Caco-2 cells were removed from the monolayer by treatment with trypsin (1500 units/ml, Calbiochem, San Diego, Calif.)-EDTA (.7mM) and counted using a hemocytometer. A sample of the cell suspension was combined in a 1:1 volume ratio with trypan blue dye (GIBCO, Grand Island, N.Y.), and at least two independently prepared suspensions were counted on a hemocytometer, two counts each. For all cell types, viability was determined by the percentage of cells able to exclude the trypan blue dye.

Caco-2 parental cells [2] = assay: Induction of apoptosis (light microscopy) in Caco-2 parental cells; format: cell-based, human; conditions: 5 mM DFMO, with or without sulindac sulfone (so in the source); parental Caco-2
Method: (§1) FIG. 3. […] Apoptosis was determined by light microscopy.
(§2) FIG. 8. […] Cells were grown over a period of 6 days. Cells were harvested at various days (0, 2, 4 and 6 days), spun onto slides and stained. Apoptosis was determined by light microscopy. Percentage of apoptotic cells was calculated as the number of apoptotic cells out of the total cells counted times 100. At least 500 cells were counted for each sample.
(§3) Cells were grown over a period of 6 days. Cells were harvested at various days (0, 2, 4 and 6 days), spun onto slides and stained. Apoptosis was determined by light microscopy. Percentage of apoptotic cells was calculated as the number of apoptotic cells out of the total cells counted times 100.

Ki-ras clone #60 = assay: Induction of apoptosis (light microscopy) in Ki-ras clone 60; format: cell-based, human; conditions: day 6, 5 mM DFMO, with or without sulindac sulfone (so in the source)
Method: as §1, §2, §3

Ki-ras clone #60 cells = assay: Clonogenic assay (colony-forming efficiency), Ki-ras clone 60; format: cell-based, human; conditions: Homo sapiens, Caco-2, 24 h; read-out: decrease in cell survival compared to untreated transfectants
[3] = tested on: colorectal tissue polyamine contents
Method: All biopsies were performed between 9:00 a.m. and noon to avoid possible effects of diurnal variation in laboratory endpoints.

polyamine levels = format: in vivo, human
Description: Based on this information a dose of 0.2 Gm/M^2 /day will be used for the current trial.

[4] = tested on: tissue polyamine contents (Barrett's lesion, normal squamous esophagus, gastric tissue, small bowel); assay: DFMO in Barrett's esophagus patients, tissue polyamine contents; format: in vivo, human; conditions: 1.5 gm/m^2 per day, 12 weeks
Description: ODC activities and polyamine contents varied in each site analyzed. The rank orders were Barrett's>small bowel~normal esophagus>gastric tissue for ODC activities, and small bowel≥Barrett's~normal esophagus>gastric tissue for putrescine contents.

[5] = tested on: ODC and polyamine contents; assay: DFMO effect on colorectal and buccal mucosa ODC and polyamine contents; format: in vivo, human
Description: When the inventors started these studies, their hope was that the effects of polyamine syntheses inhibitors in easily accessible tissues, such as buccal mucosa in the oral cavity, would be representative of inhibitor effects in less accessible tissue of the gastrointestinal tract. To test this hypothesis, the inventors measured ODC activity and polyamine contents in buccal mucosa isolated from normal human volunteers. […] From these studies, the inventors concluded that the buccal mucosal was not a useful surrogate tissue in which to measure the effects of polyamine synthesis inhibitor on other GI tissues.

Caco-2 parental cells [6] = conditions: long-term survival, Caco-2 cells
[7] = human, in vivo
Caco-2 parental cells [8] = assay: cells; conditions: Homo sapiens, Caco-2, 24 h, read-out: cell survival
Ki-ras clones 60 and 66 = assay: cells; conditions: Homo sapiens
[9] = tested on: tumors harboring Ki-ras mutations in AOM-treated rats; conditions: cited from earlier work
[10] = tested on: carcinogenesis in rodent/animal models; conditions: in vivo; cited from earlier work
hearing [11] = conditions: cited from earlier work
tumor putrescine levels = conditions: DFMO infusion, cited from earlier work
platelet counts = conditions: continuous infusion for 12 days; cited from earlier work
MCA sarcoma = conditions: in vivo; cited from earlier work
[12] = tested on: ornithine decarboxylase (ODC); conditions: cited from earlier work
[13] = tested on: intracellular putrescine and spermidine; conditions: cited from earlier work
human cancer = conditions: cited from earlier work
hearing [14] = assay: DFMO effects on hearing / ototoxicity in patients; conditions: 0.25 g/m^2 /d
[15] = tested on: AOM-treated rat model of colon carcinogenesis; conditions: in vivo; cited from earlier work
[16] = cited from earlier work
[17] = tested on: colorectal adenomas/polyps; conditions: cited from earlier work
[18] = sulindac 400 mg per day; cited from earlier work
COX (cyclooxygenase) = conditions: cited from earlier work
[19] = cited from earlier work; remark: listed apart in the source
[20] = tested on: colorectal adenomas/polyps; assay: Sulindac effect on colorectal adenomas/polyps in patients; conditions: randomized phase IIb
[21] = tested on: AOM-treated rat model of colon carcinogenesis; assay: Colon carcinogenesis in the AOM-treated rat / rodent model; conditions: sulfoxide and sulfone forms
[22] = listed as α-Difluoromethylornithine (DFMO)

SMILES: NCCCC(N)(C(=O)O)C(F)F (racemic) [DFMO, 2(Difluoromethyl)-DL-ornithine]
- trypan blue dye exclusion [1]: exclusion of trypan blue dye in either the Ki-ras cells or parentals was unaffected
- increase in apoptosis (Caco-2 parental cells [2]): only a modest increase in apoptosis
- percentage of apoptotic cells (Ki-ras clone #60): 15%
- cytotoxicity at 5000 µM (Ki-ras clone #60 cells): 60%
- lowest dose safe and effective in reducing colorectal mucosal polyamine contents ([3]; daily orally, 28 days): 0.25 gm/m^2
- lowest dose with evident effects on polyamine metabolism ([3]; phase IIa, one month): 0.2 Gm/M^2 /day
- lowest dose decreasing putrescine content ([3]; single daily oral doses, 4 wk, colorectal biopsies): 0.25 gm/m^2
- lowest dose that may produce a persistent effect on polyamine levels (polyamine levels; 12 months): 0.10 Gm/M^2 /day
- audiotoxicity (polyamine levels; in vivo): no audiotoxicity was evident
- patients coming off study (polyamine levels; in vivo): came off study more frequently
- side-effects after one year (polyamine levels; in vivo): equivalent to placebo
- spermidine contents ([4]; Barrett's lesions and normal squamous esophageal tissue): suppressed by systemic DFMO treatment and recovered to untreated control values when DFMO therapy was discontinued
- spermidine and spermine levels ([4]; gastric tissue and small bowel): did not affect the levels of either of these two amines in gastric tissue and small bowel
- buccal mucosal ODC and polyamine contents ([5]; buccal mucosa): unaffected
- polyamine contents in colorectal tissue biopsies ([5]; colorectal tissue): reduced polyamine contents in colorectal tissue biopsies
- effect of DFMO on toxicity of the sulindac metabolites (Caco-2 parental cells [6]): did not increase the toxicity of the sulindac metabolites in long-term survival studies
- wound healing problems [7]: problems with wound healing have not been experienced
- viability at 5000 µM (Caco-2 parental cells [8]): ~100%
- IC50 (Ki-ras clones 60 and 66; 24 h, read-out: concentration at 50% cell survival): 500 µM
- minimal effective concentration (Ki-ras clones 60 and 66; 24 h, read-out: lowest concentration (selectively) toxic to cells with an activated Ki-ras): 50 µM
- viability at 5000 µM (Ki-ras clones 60 and 66; Caco-2, 24 h, read-out: cell survival, of controls): 20 to 40%
- inhibition at 5000 µM (Ki-ras clones 60 and 66; Caco-2, 24 h, read-out: reduction of colony-forming efficiency of the Ki-ras transfectants): 40%
- amount of biochemically active p21 ras in existing tumors [9]: reduced the amount of biochemically active p21 ras in existing tumors
- tumors harboring Ki-ras mutations ([9]; reduced from 90%): 36%
- chemoprevention / inhibition of tumor development in animal models [10]: potent inhibitor of carcinogenesis; also recorded: inhibits the development of many cancers including carcinogen-induced colon polyps and cancer; also recorded: inhibits colon carcinogenesis in carcinogen-treated rodents
- effects on hearing (hearing [11]; 0.4gr/M^2 /day for up to one year): not observed
- audiometric changes (hearing [11]; about 6 months at 0.50 g/m^2 /d (total dose 90 gm)): no audiometric changes
- patients with hearing losses (hearing [11]; cumulative doses above 250 g/m^2): up to 75 % of patients
- patients with demonstrable hearing deficit (hearing [11]; cumulative doses below 150 g/m^2): less than 10 % of the patients
- effects on hearing / hearing loss, reversibility (hearing [11]; other clinical trials): hearing loss, which was reversible after the drug treatment was discontinued; also recorded: totally reversible upon drug discontinuation; also recorded: effects on hearing at high doses of 4 gr/M^2 /day that resolve when it is discontinued
- decrease in tumor putrescine levels (tumor putrescine levels; rat-tumor model): 90%
- peripheral platelet counts (tumor putrescine levels): without suppressing peripheral platelet counts
- platelet counts (platelet counts): significantly reduces platelet counts compared with controls
- growth of MCA sarcoma (MCA sarcoma): reduces the growth rate of an MCA sarcoma but does not produce tumor regression
- inhibition of ODC [12]: powerful inhibitor of ODC, both in vitro and in vivo
- inhibition of ODC [12, 22]: enzyme-activated, irreversible inhibitor of ornithine decarboxylase (ODC)
- uptake of exogenous putrescine ([13]; cells treated in vivo): significantly increase their uptake of exogenous putrescine
- intracellular polyamine concentrations [13]: decrease in putrescine and spermidine concentrations
- intracellular polyamine concentrations [13, 22]: depletion in the intracellular concentrations of putrescine and its derivative, spermidine
- activity in chemotherapy trials (human cancer; human cancer): not to be an active cytotoxic agent
- activity in malignant brain tumors (human cancer; malignant brain tumors): moderate activity
- expected onset of hearing loss (hearing [14]): > 800 days

SMILES: CC1=C(CC(=O)O)c2cc(F)ccc2/C1=C\c1ccc([S+](C)[O-])cc1 (stereo not drawn) [sulindac, (Z)-5-Fluoro-2-methyl-1-((4 (methylsulfinyl)phenyl)methylene) 1H-indene-3-acetic acid]
- Ki-ras mutation / tumors harboring an activated Ki-ras [9]: reduces the number of tumors harboring an activated Ki-ras
- apoptosis in AOM-treated rodent model [15]: cause apoptosis
- inhibition of colon carcinogenesis in AOM-treated rat model [15]: effectively inhibit colon carcinogenesis
- time of peak plasma levels ([16]; fasting patients): about 2 hours
- half-life ([16]; human, in vivo, po): 7 h
- mean half-life ([16]; human, in vivo, po): 7.8 h
- absorption of drug ([16]; oral administration): about 90%
- regression of adenomas in FAP patients ([17]; FAP patients): regression of adenomas
- clinical regression of polyps ([17]; several studies): can cause clinical regression of polyps
- effect on sporadic adenomas ([17]; sporadic adenomas): no such effect
- analgesic and antiinflamatory effects [18]: comparable to those achieved by aspirin (4 g per day), ibuprofin (1200 mg per day), indomethacin (125 mg per day), and phenylbutazone (400 to 600 mg per day)
- COX / prostaglandin synthesis inhibition (COX (cyclooxygenase)): inhibit cycloxygenase and prostaglandin synthesis
- borderline elevations in one or more liver function test ([19]; human, in vivo): 15 % of clinical trial patients
- gastrointestinal toxicity / ulceration ([19]; human, in vivo): serious gastrointestinal toxicity such as bleeding, ulceration, and perforation
- meaningful elevations in liver function test (3 times upper limit of normal) ([19]; human, in vivo): less than 1%
- mild gastrointestinal effects ([19]; human, in vivo): ~20 % of patients
- skin rash and pruritus ([19]; human, in vivo): 5 % of patients
- gastrointestinal toxicity / ulceration ([19]; human, in vivo, listed as Sulindac): G.I. ulceration that in general is dose-related; also recorded: can produce gastric irritation and bleeding
- granulocytosis, aplastic anemia, hemolytic anemia ([19]; rare adverse effects): less than 1%
- gastrointestinal pain ([19]; therapeutic doses): 10%
- 150 mg per day vs. twice per day [20]: comparable results
- safety in phase IIb study [20]: safe
- polyp regression and development of new polyps ([20]; 150 mg per day or twice per day): regression of extant polyps shown
- inhibition of carcinogenesis in the AOM-treated rat [21]: inhibit carcinogenesis in the AOM-treated rat, with similar potencies
